Data: US20250213528A1, “5-METHOXY-N,N-[…][…] THE TREATMENT OF ANXIETY” (GH RESEARCH IRELAND LIMITED, priority 2022, published 2025)

Columns and labels:
[1] = test system: Salmonella typhimurium TA98, TA100, TA1535 and TA1537; test: Bacterial mutation test, Salmonella typhimurium; format: cell-based; conditions: up to 5000 μg/plate, absence and presence of rat liver S-9
Protocol: (§1) These conditions included treatments at concentrations up to 5000 μg/plate (the maximum recommended concentration according to current regulatory guidelines), in the absence and in the presence of a rat liver metabolic activation system (S-9).

[2] = Pharmacokinetics of 5-MeO-DMT and bufotenine after inhalation of 5-MeO-DMT; format: in vivo, human
[3] = test system: Escherichia coli WP2 uvrA pKM101; test: Bacterial mutation test, Escherichia coli; format: cell-based; conditions: up to 5000 μg/plate, absence and presence of rat liver S-9
Protocol: as §1

[4] = test system: patients with postpartum depression (PPD); test: Clinical trial of inhaled 5-MeO-DMT in postpartum depression, one patient, IDR 6 mg then 12 mg; format: in vivo, human; conditions: n=1
Description: Maternal functioning can, for instance, be assessed using the Barkin Index of Maternal Functioning (BIMF). This index was designed to measure functioning in the year after childbirth. The BIMF is a 20-item self-report measure of functioning. Each item is assigned a score between 0 and 6 so that the maximum total score is 120. The higher the score, the better maternal functioning is rated.
The single-arm, open-label clinical trial will involve 15 adult female patients with clinically diagnosed postpartum depression (PPD).
The second dose (12 mg) will only be administered if: • a. […] The 6 mg dose was safe and well-tolerated according to the investigator, • c. Any psychoactive effects (PsE) of the prior dose have subsided, and • d. Pre-dose vital parameters and forced expiratory volume in one second (FEV1) are in normal range, or if outside of the normal range, are not clinically significant according to the investigator. • 3. Similarly, a third dose (18 mg) will only be administered if: • a. […] The 12 mg dose was safe and well-tolerated according to the investigator, and • c. Any PsE of the prior dose have subsided, and • d. Pre-dose vital parameters and forced expiratory volume in one second (FEV1) are in normal range, or if outside of the normal range, are not clinically significant according to the investigator.
The patients will be assessed for a peak psychedelic experience (based on a patient-scored visual analogue scale, the PE scale), sedation, and other endpoints after dosing. Follow-up visits are planned for Day 1, and Day 7 after the dosing day.
The following criteria must be met by all patients considered for clinical trial participation: • 1. Is female and in the age range between 18 and 45 years (inclusive) at screening. • 2. Has a body mass index (BMI) in the range of 18.5 and 35 kg/m^2 (inclusive) at screening. • 3. Meets the trial criteria for PPD as assessed by a trial psychiatrist or registered psychologist: • a. Diagnosis of Major Depressive Disorder without psychotic features, confirmed by the Mini-International Neuropsychiatric Interview (MINI), with peri-partum onset that began no earlier than gestation and no later than the first 4 weeks postpartum. • b. Has a Montgomery-Åsberg Depression Rating Scale (MADRS) total score of equal to or greater than 28 at screening and pre-dose on Day 0. • 6. […] Patients must have a negative pregnancy test at screening and on the pre-test day (Day-1). • 5. Is willing to delay start of other antidepressant or anxiety medication until after the end of the trial at Day 7 and agrees to keep any psychotherapy unchanged during the trial.
A potential patient who meets any of the following key exclusion criteria will be excluded from participation in this trial: • 1. Has, based on history, psychiatric assessment, and evaluation of the MINI, a current or prior diagnosis of bipolar disorder, a manic or hypomanic episode, a psychotic disorder, Major Depressive Disorder (MDD) or other mood disorder with psychotic features, obsessive compulsive disorder, post-traumatic stress disorder (PTSD), autism spectrum disorder, borderline personality disorder, schizophrenia, delusional disorder, paranoid personality disorder, schizoaffective disorder, clinically significant intellectual disability, or any other psychiatric comorbidity that renders the patient unsuitable for the trial according to the investigator's judgment. • 2. Has one or more first or second degree relatives with a current or previously diagnosed bipolar disorder, psychotic disorder or other mood disorder (including MDD) with psychotic features. • 3.

COc1ccc2[nH]cc(CCN(C)C)c2c1 [5-MeO-DMT]
mutation induction [1]: did not induce mutation | detectability in the plasma ([2]; 3 hours after inhalation, whole dose range 6, 12, 18 mg): no longer detectable | pharmacokinetic measurements under uptitration ([2]; dosing schemes relying on uptitration, compared with single doses): Substantially similar results | mutation induction [3]: did not induce mutation | standard criteria for MADRS remission (MADRS total score equal or less than 10) [4]: fulfilled | standard criteria for MADRS response (at least 50% improvement from baseline) [4]: fulfilled | time to clinical remission after administration [4]: ≤ 2 h | durability of clinical response ([4]; 5-MeO-DMT given on one day only): sustained over the 7-day follow-up period | Total MADRS Improvement ([4]; 2 hr): 24 | BPRS Tension Improvement ([4]; Day 1): 5 | Total MADRS Improvement ([4]; Day 1): 29 | Total MADRS Improvement ([4]; Day 7): 28 | BIMF item 19 As time goes on, I am getting better at taking care of my baby, score ([4]; Day 7, Day 0 score 0): 1 | BIMF item 13 I am taking good care of my physical needs, score ([4]; Day 7, Day 0 score 4): 5 | BIMF item 5 I am able to relax and enjoy time with my baby, score ([4]; Day 7, Day 0 score 5): 6 | BIMF item 9 I am getting enough encouragement from other people, score ([4]; Day 7, Day 0 score 5): 6 | BIMF item 10 I trust my own feelings (instincts) when it comes to taking care of my baby, score ([4]; Day 7, Day 0 score 5): 6 | BIMF item 17 I am able to take care of my baby and my other responsibilities, score ([4]; Day 7, Day 0 score 5): 5 | BIMF functional domain Adjustment score ([4]; Day 7, Day 0 score 5, maximum possible 12): 6 | BIMF item 3 I am comfortable with the way I've chosen to feed my baby, score ([4]; Day 7, Day 0 score 6): 6 | BIMF item 6 There are people in my life that I can trust to care for my baby when I need a break, score ([4]; Day 7, Day 0 score 6): 6 | BIMF item 8 I am getting enough adult interaction, score ([4]; Day 7, Day 0 score 6): 6 | BIMF item 12 I am taking good care of my baby's physical needs, score ([4]; Day 7, Day 0 score 6): 6 | BIMF item 14 I make good decisions about my baby's health and well being, score ([4]; Day 7, Day 0 score 6): 6 | BIMF item 20 I am satisfied with the job I am doing as a new mother, score ([4]; Day 7, Day 0 score 6): 5 | BIMF functional domain Self Care score ([4]; Day 7, Day 0 score 9, maximum possible 18): 13 | BIMF functional domain Infant Care score ([4]; Day 7, Day 0 score 12, maximum possible 12): 12 | BIMF functional domain Mother-Child Interaction score ([4]; Day 7, Day 0 score 15, maximum possible 18): 17 | BIMF functional domain Social Support score ([4]; Day 7, Day 0 score 17, maximum possible 18): 18 | BIMF functional domain Management score ([4]; Day 7, Day 0 score 28, maximum possible 36): 33 | BIMF functional domain Psychological Well-being score ([4]; Day 7, Day 0 score 44, maximum possible 60): 53 | BIMF total score improvement ([4]; Day 7, from 92 to 105 of possible 120): 14% | BIMF TOTAL, Δ (Day 7) ([4]; Day 7 vs Day 0): 13 | BIMF item 3 I am comfortable with the way I've chosen to feed my baby, Δ (Day 7) ([4]; Day 7 vs Day 0): 0 | BIMF item 5 I am able to relax and enjoy time with my baby, Δ (Day 7) ([4]; Day 7 vs Day 0): 1 | BIMF item 6 There are people in my life that I can trust to care for my baby when I need a break, Δ (Day 7) ([4]; Day 7 vs Day 0): 0 | BIMF item 8 I am getting enough adult interaction, Δ (Day 7) ([4]; Day 7 vs Day 0): 0 | BIMF item 9 I am getting enough encouragement from other people, Δ (Day 7) ([4]; Day 7 vs Day 0): 1 | BIMF item 10 I trust my own feelings (instincts) when it comes to taking care of my baby, Δ (Day 7) ([4]; Day 7 vs Day 0): 1 | BIMF item 11 I take a little time each week to do something for myself, Δ (Day 7) ([4]; Day 7 vs Day 0): 1 | BIMF item 12 I am taking good care of my baby's physical needs, Δ (Day 7) ([4]; Day 7 vs Day 0): 0 | BIMF item 13 I am taking good care of my physical needs, Δ (Day 7) ([4]; Day 7 vs Day 0): 1 | BIMF item 14 I make good decisions about my baby's health and well being, Δ (Day 7) ([4]; Day 7 vs Day 0): 0 | BIMF item 17 I am able to take care of my baby and my other responsibilities, Δ (Day 7) ([4]; Day 7 vs Day 0): 0 | BIMF item 19 As time goes on, I am getting better at taking care of my baby, Δ (Day 7) ([4]; Day 7 vs Day 0): 1 | BIMF item 20 I am satisfied with the job I am doing as a new mother, Δ (Day 7) ([4]; Day 7 vs Day 0): −1 | BPRS Tension Improvement ([4]; Discharge): 5

CN(C)CCc1c[nH]c2ccc(O)cc12 [bufotenine]
bufotenine blood concentration above LLOQ ([2]; after inhaled 5-MeO-DMT, LLOQ 25 pg/ml): Only in few samples | bufotenine blood concentrations under uptitration ([2]; subjects receiving an uptitration scheme included): Substantially similar observations
